Data published in article PMC11167047 (Cell Death Discovery, 2024).

How the values were obtained:
Assay in all cases: kinome screen (33PanQinase)
Format in all cases: biochemical
CSK = target: T1, CSK (Homo sapiens, UniProt P41240)
T1 construct: purchased Reaction Biology Europe GmbH (formerly ProQinase)
Procedure: (§1) The Kinome Screening was performed by Reaction Biology Europe GmbH (http://reactionbiology.com; Freiburg i. Br., Germany).

PRK1 = target: T2, PRK1 (Homo sapiens, UniProt Q16512)
T2 construct: purchased Reaction Biology Europe GmbH (formerly ProQinase)
Procedure: as §1

PKCβ1 = target: T3, PKCβ1 (Homo sapiens, UniProt P05771)
T3 construct: purchased Reaction Biology Europe GmbH (formerly ProQinase)
Procedure: as §1

MELK = target: T4, MELK (Homo sapiens, UniProt Q14680)
T4 construct: purchased Reaction Biology Europe GmbH (formerly ProQinase)
Procedure: as §1

PKCϴ = target: T5, PKCϴ (Homo sapiens, UniProt Q04759)
T5 construct: purchased Reaction Biology Europe GmbH (formerly ProQinase)
T5 sequence (Q04759 whole entry): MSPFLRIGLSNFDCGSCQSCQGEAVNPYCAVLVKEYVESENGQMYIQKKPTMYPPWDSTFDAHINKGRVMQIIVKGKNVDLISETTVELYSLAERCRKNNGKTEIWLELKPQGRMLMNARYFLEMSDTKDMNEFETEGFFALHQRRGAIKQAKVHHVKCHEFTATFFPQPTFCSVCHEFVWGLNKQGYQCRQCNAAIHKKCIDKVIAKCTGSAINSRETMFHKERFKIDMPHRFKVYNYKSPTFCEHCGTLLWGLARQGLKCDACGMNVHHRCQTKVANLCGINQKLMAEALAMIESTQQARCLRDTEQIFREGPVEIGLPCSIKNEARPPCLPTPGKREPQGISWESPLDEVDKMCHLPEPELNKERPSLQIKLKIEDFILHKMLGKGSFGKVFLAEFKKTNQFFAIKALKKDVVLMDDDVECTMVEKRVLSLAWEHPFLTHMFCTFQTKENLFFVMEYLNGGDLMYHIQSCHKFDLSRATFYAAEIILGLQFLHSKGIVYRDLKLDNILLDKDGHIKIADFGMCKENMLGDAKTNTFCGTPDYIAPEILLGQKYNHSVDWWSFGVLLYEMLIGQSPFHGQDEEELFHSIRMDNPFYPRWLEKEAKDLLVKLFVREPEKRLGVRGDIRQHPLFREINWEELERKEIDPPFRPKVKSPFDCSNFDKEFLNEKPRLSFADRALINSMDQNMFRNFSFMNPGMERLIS
Procedure: as §1

VEGFR3 = target: T6, VEGFR3 (Homo sapiens, UniProt P35916)
T6 construct: purchased Reaction Biology Europe GmbH (formerly ProQinase)
T6 sequence (P35916 25-1363): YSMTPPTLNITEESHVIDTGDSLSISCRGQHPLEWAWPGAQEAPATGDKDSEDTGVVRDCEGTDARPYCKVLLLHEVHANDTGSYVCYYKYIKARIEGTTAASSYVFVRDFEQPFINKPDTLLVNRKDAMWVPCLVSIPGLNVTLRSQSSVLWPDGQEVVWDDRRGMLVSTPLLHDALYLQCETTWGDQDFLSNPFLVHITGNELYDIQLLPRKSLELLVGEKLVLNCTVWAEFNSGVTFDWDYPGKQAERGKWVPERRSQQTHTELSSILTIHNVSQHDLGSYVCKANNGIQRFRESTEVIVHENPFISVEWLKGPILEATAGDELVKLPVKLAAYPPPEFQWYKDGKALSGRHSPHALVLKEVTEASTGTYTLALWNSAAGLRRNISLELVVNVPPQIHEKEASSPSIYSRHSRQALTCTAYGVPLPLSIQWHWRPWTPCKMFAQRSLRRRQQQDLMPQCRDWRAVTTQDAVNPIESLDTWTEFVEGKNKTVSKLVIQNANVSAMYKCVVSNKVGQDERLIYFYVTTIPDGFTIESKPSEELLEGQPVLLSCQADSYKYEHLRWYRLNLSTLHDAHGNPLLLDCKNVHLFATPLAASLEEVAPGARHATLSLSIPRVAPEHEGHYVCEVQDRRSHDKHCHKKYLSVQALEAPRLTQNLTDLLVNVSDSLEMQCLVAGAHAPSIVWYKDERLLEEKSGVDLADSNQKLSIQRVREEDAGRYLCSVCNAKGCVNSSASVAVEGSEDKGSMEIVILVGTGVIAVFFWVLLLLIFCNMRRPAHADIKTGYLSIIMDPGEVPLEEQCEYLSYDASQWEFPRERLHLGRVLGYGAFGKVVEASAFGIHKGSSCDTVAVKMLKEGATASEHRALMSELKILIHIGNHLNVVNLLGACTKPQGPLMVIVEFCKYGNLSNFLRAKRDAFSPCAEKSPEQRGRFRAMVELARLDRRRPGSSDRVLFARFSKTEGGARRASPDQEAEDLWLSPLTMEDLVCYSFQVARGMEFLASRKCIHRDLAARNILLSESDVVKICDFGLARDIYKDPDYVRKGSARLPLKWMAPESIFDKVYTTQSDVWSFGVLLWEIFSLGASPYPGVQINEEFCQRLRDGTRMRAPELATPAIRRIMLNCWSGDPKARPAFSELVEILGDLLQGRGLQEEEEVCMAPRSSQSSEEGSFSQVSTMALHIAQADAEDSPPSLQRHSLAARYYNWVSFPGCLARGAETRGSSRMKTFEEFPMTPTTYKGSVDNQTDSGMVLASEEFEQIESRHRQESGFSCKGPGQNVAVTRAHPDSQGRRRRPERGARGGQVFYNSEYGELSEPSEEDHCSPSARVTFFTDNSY
Procedure: as §1

CAMK1D = target: T7, CAMK1D (Homo sapiens, UniProt Q8IU85)
T7 construct: purchased Reaction Biology Europe GmbH (formerly ProQinase)
Procedure: as §1

CHK1 = target: T8, CHK1 (Homo sapiens, UniProt O14757)
T8 construct: purchased Reaction Biology Europe GmbH (formerly ProQinase)
T8 sequence (O14757 1-476): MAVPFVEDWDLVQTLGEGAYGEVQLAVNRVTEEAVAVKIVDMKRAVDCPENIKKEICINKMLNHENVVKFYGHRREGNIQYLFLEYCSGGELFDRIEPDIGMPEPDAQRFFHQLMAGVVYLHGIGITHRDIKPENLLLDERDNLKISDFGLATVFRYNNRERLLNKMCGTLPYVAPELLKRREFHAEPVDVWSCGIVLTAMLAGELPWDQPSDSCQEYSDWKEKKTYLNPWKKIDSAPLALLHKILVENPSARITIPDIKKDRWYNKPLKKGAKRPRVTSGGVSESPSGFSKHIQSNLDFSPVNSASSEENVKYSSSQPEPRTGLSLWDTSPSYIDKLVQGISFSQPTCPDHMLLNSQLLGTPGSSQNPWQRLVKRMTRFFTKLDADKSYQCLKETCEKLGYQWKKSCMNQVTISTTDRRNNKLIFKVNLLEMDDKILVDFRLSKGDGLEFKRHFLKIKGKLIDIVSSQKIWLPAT
Procedure: as §1

SYK = target: T9, SYK (Homo sapiens, UniProt P43405)
T9 construct: purchased Reaction Biology Europe GmbH (formerly ProQinase)
Procedure: as §1

YES = target: T10, YES (Homo sapiens, UniProt P07947)
T10 construct: purchased Reaction Biology Europe GmbH (formerly ProQinase)
Procedure: as §1

PDGFRα = target: T11, PDGFRα (Homo sapiens, UniProt P16234)
T11 construct: purchased Reaction Biology Europe GmbH (formerly ProQinase)
T11 sequence (P16234 24-1089): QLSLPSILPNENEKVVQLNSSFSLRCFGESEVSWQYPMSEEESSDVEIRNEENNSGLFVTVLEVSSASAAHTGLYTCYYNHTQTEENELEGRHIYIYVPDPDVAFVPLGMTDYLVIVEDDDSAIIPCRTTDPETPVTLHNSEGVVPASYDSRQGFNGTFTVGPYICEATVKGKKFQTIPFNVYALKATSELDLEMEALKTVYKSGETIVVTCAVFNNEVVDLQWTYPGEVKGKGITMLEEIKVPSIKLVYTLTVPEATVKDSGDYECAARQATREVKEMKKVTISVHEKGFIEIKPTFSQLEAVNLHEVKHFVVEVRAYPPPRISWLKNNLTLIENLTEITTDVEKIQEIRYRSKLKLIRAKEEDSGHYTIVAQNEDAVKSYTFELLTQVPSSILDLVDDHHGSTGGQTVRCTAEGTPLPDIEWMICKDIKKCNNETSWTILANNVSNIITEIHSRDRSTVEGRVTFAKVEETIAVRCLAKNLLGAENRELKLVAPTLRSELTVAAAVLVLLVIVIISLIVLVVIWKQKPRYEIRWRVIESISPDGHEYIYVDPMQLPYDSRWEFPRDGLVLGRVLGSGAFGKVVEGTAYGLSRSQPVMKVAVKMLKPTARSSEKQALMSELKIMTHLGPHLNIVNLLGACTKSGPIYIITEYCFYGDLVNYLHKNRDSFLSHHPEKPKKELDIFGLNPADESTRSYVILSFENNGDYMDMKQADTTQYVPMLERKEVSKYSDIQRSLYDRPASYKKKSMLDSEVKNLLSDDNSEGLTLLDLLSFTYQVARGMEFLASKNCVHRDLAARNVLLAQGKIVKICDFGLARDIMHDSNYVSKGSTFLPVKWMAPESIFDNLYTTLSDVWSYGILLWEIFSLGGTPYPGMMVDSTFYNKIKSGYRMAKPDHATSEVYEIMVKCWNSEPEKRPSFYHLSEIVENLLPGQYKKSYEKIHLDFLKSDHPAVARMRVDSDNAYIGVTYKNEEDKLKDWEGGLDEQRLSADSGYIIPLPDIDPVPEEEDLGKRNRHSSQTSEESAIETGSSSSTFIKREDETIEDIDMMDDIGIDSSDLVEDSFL
Procedure: as §1

WEE1 = target: T12, WEE1 (Homo sapiens, UniProt P30291)
T12 construct: purchased Reaction Biology Europe GmbH (formerly ProQinase)
T12 sequence (P30291 whole entry): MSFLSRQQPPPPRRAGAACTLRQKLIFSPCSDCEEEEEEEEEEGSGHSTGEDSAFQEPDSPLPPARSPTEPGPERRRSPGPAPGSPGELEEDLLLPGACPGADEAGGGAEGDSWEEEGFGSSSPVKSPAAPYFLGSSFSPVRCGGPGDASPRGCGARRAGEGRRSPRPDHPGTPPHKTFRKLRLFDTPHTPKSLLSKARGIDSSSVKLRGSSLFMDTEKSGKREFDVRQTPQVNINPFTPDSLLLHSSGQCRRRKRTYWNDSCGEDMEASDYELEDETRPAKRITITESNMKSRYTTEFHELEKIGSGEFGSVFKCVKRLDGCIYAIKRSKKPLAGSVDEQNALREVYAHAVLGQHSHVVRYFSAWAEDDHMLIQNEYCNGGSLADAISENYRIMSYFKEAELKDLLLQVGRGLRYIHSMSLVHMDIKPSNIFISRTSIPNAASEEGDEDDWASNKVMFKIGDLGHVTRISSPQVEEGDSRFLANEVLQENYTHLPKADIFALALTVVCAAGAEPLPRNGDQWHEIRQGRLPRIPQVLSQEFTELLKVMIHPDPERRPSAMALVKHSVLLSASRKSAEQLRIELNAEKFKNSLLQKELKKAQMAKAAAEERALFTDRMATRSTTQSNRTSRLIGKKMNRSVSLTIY
Procedure: as §1

CLK2 = target: T13, CLK2 (Homo sapiens, UniProt P49760)
T13 construct: purchased Reaction Biology Europe GmbH (formerly ProQinase)
Procedure: as §1

CDK5/p25NCK = target: T14, CDK5/p25NCK (Homo sapiens, UniProt Q00535)
T14 construct: purchased Reaction Biology Europe GmbH (formerly ProQinase)
T14 sequence (Q00535 whole entry): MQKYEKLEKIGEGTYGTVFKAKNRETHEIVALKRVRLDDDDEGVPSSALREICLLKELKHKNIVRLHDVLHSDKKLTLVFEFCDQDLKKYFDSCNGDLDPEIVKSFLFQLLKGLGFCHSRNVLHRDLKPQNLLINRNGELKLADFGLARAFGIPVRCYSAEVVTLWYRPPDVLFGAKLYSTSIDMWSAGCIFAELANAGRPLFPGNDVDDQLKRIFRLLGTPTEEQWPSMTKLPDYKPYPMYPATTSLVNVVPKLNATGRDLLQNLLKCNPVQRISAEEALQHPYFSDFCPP
T14 sequence (Q15078 99-307 partner limits assumed): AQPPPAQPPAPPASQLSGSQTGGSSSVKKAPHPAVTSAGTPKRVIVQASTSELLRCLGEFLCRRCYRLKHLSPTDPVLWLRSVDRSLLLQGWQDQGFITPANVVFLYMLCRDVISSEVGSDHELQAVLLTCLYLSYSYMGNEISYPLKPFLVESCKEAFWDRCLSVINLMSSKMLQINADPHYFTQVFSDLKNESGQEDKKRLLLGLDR
Procedure: as §1

CAMK2A = target: T15, CAMK2A (Homo sapiens, UniProt Q9UQM7)
T15 construct: purchased Reaction Biology Europe GmbH (formerly ProQinase)
T15 sequence (Q9UQM7 whole entry): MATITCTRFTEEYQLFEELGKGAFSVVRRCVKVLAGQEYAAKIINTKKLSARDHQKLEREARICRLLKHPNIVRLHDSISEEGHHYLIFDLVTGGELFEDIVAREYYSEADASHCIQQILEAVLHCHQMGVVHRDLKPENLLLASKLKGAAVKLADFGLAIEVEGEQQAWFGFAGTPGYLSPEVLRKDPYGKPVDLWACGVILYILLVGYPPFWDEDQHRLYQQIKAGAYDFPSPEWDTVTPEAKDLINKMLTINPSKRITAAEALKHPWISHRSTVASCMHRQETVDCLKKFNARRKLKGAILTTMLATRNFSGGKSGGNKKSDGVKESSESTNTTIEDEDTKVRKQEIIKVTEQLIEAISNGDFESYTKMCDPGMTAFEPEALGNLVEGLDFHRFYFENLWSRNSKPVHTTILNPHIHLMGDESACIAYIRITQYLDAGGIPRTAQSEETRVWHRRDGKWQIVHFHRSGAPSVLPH
Procedure: as §1

CLK1 = target: T16, CLK1 (Homo sapiens, UniProt P49759)
T16 construct: purchased Reaction Biology Europe GmbH (formerly ProQinase)
Procedure: as §1

BRSK1 = target: T17, BRSK1 (Homo sapiens, UniProt Q8TDC3)
T17 construct: purchased Reaction Biology Europe GmbH (formerly ProQinase)
T17 sequence (Q8TDC3 1-778): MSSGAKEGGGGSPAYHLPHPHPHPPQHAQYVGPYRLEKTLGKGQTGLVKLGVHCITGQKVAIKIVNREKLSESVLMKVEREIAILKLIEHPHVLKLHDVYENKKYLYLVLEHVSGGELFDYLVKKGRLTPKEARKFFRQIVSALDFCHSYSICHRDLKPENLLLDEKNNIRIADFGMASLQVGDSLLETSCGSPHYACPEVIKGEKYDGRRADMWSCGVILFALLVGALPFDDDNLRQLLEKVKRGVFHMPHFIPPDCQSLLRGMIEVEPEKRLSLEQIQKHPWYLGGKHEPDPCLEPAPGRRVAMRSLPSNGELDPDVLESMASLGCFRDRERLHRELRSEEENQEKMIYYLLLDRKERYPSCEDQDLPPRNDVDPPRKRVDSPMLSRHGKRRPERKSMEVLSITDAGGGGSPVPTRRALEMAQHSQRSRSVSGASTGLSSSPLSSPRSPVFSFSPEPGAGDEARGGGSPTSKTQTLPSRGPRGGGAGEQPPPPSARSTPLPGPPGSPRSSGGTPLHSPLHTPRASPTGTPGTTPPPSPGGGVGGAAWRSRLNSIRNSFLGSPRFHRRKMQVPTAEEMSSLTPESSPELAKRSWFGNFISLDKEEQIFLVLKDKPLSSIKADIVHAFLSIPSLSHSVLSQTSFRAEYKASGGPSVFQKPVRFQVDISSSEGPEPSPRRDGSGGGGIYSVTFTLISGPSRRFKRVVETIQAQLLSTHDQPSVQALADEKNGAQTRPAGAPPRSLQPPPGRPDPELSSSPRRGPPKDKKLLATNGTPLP
Procedure: as §1

SMILES	residual kinase activity (CSK; 0.3 µM)	residual kinase activity (PRK1; 0.3 µM)	residual kinase activity (PKCβ1; 0.3 µM)	residual kinase activity (MELK; 0.3 µM)	residual kinase activity (PKCϴ; 0.3 µM)	residual kinase activity (VEGFR3; 0.3 µM)	residual kinase activity (CAMK1D; 0.3 µM)	residual kinase activity (CHK1; 0.3 µM)	residual kinase activity (SYK; 0.3 µM)	residual kinase activity (YES; 0.3 µM)	residual kinase activity (PDGFRα; 0.3 µM)	residual kinase activity (WEE1; 0.3 µM)	residual kinase activity (CLK2; 0.3 µM)	residual kinase activity (CDK5/p25NCK; 0.3 µM)	residual kinase activity (CAMK2A; 0.3 µM)	residual kinase activity (CLK1; 0.3 µM)	residual kinase activity (BRSK1; 0.3 µM)	further results
COc1ccnc2[nH]cc(-c3cc(N)nc(N)c3)c12 [meriolin 16]	106 % of control	35 % of control	50 % of control	14 % of control	7 % of control	77 % of control	81 % of control	87 % of control	84 % of control	90 % of control	60 % of control	99 % of control	1 % of control	1 % of control	81 % of control	3 % of control	97 % of control	residual kinase activity (CSK; 0.03 µM): 114 % of control; residual kinase activity (PRK1; 0.03 µM): 84 % of control; residual kinase activity (PKCβ1; 0.03 µM): 103 % of control; residual kinase activity (MELK; 0.03 µM): 74 % of control; residual kinase activity (PKCϴ; 0.03 µM): 40 % of control; residual kinase activity (VEGFR3; 0.03 µM): 90 % of control; residual kinase activity (CAMK1D; 0.03 µM): 102 % of control; residual kinase activity (CHK1; 0.03 µM): 96 % of control; residual kinase activity (SYK; 0.03 µM): 93 % of control; residual kinase activity (YES; 0.03 µM): 100 % of control; residual kinase activity (PDGFRα; 0.03 µM): 89 % of control; residual kinase activity (WEE1; 0.03 µM): 80 % of control; residual kinase activity (CLK2; 0.03 µM): 8 % of control; residual kinase activity (CDK5/p25NCK; 0.03 µM): 16 % of control; residual kinase activity (CAMK2A; 0.03 µM): 103 % of control; residual kinase activity (CLK1; 0.03 µM): 11 % of control; residual kinase activity (BRSK1; 0.03 µM): 91 % of control
c1ccc(CNc2cc(-c3c[nH]c4ncccc34)ccn2)cc1 [meriolin 36]	116 % of control	17 % of control	53 % of control	36 % of control	2 % of control	64 % of control	70 % of control	76 % of control	90 % of control	65 % of control	25 % of control	72 % of control	1 % of control	0 % of control	26 % of control	4 % of control	89 % of control	residual kinase activity (CSK; 3 µM): 71 % of control; residual kinase activity (PRK1; 3 µM): 3 % of control; residual kinase activity (PKCβ1; 3 µM): 9 % of control; residual kinase activity (MELK; 3 µM): 9 % of control; residual kinase activity (PKCϴ; 3 µM): 1 % of control; residual kinase activity (VEGFR3; 3 µM): 23 % of control; residual kinase activity (CAMK1D; 3 µM): 38 % of control; residual kinase activity (CHK1; 3 µM): 40 % of control; residual kinase activity (SYK; 3 µM): 64 % of control; residual kinase activity (YES; 3 µM): 19 % of control; residual kinase activity (PDGFRα; 3 µM): 8 % of control; residual kinase activity (WEE1; 3 µM): 37 % of control; residual kinase activity (CLK2; 3 µM): 2 % of control; residual kinase activity (CDK5/p25NCK; 3 µM): 1 % of control; residual kinase activity (CAMK2A; 3 µM): 2 % of control; residual kinase activity (CLK1; 3 µM): 2 % of control; residual kinase activity (BRSK1; 3 µM): 73 % of control
